In PMC7801115, “Preclinical in vitro screening of newly synthesised amidino substituted benzimidazoles and benzothiazoles” (Journal of Enzyme Inhibition and Medicinal Chemistry, 2021):

Tests used:
[1] = Chromatographic lipophilicity study (Chrom logD7.4); assay type: physicochemical; settings: gradient reverse-phase HPLC (Phenomenex Luna C18 column); pH 7.4, gradient reverse-phase HPLC, from CHI7.4
Description: In order to determine the lipophilicity range, Chromatographic Hydrophobicity Index was measured by gradient reverse-phase HPLC at physiological pH. Sample working solutions were prepared from 10 mM DMSO stock solutions by dilution with acetonitrile to a final concentration of 1.25 mM and analysed on Agilent 1100 Series liquid chromatography system with HPLC diode-array detector (DAD) coupled with Micromass Quattro micro API mass spectrometer. Samples were injected onto an HPLC column (Phenomenex Luna C18, 50 × 3 mm, 5 µm) and eluted with a gradient at room temperature (sample temperature 15 °C). The mobile phase was composed of 50 mM Ammonium acetate, pH = 7.4 and acetonitrille. A total run time was 5 min, with the flow rate of 1 ml/min (under gradient conditions). The HPLC system was initially calibrated using the calibration set of 10 compounds with literature CHI values. The experimentally determined gradient retention times were plotted against the CHI7.4 values published in the literature resulting in the equation obtained from linear regression analysis. This equation was further used for the calculation of CHI7.4 for test compounds from determined retention times of the main chromatographic peak from UV chromatogram for each compound. The obtained CHI7.4 values were further converted to Chrom log D7.4 as follows: CHI7.4 × 0.0857 − 2.

MDCKII-hMDR1 cells = test: MDCKII-MDR1 permeability and P-glycoprotein substrate assay; assay type: in vitro ADME, canine cells over-expressing human MDR1; settings: without P-gp inhibitor
Description: Permeability and P-glycoprotein substrate assessment was done on MDCKII-hMDR1, Madin-Darby canine epithelial cells over-expressing human MDR1 gene, coding for P-glycoprotein.
Cells were prepared for transport studies by seeding on 96-well cell culture inserts (Millipore, MA, USA) in a concentration of 0.25 × 10^6 cells per ml. The cells were fed with fresh medium 24 h post seeding and cultured to confluence for 3 days before use. On the day of experiment, the cell monolayers were washed and equilibrated with transport medium (DPBS, pH 7.4 containing 1% DMSO) with or without P-gp specific inhibitor, elacridar (2 µM) for 45 min (37 °C, 5% CO2, 95% humidity). Test compound solution consisted of test substance (10 μM) in D-PBS medium containing lucifer yellow (100 μM) and 1% DMSO. Transport assays were conducted in apical to basolateral (A2B) and basolateral to apical (B2A) directions, respectively. Monolayers were incubated with the compound solution for 60 min at 37 °C under gentle agitation. Apical and basolateral compartments were sampled at the end of the transport experiment, while donor solutions were also sampled at the beginning of the experiment in order to determine initial concentration. Test substance concentrations in both compartments were determined by LC-MS/MS. There were several controls used in the assay: 1) amprenavir (0.5 μM) served as a low permeable control, being also a P-gp substrate; 2) diclofenac (10 μM) was used as a high permeable control; 3) Lucifer yellow, a fluorescent marker for the paracellular membrane transport, was used as a control of cell monolayer integrity.
All ADME samples were analysed on a Sciex API 4000 or Sciex API4500 Triple Quadrupole Mass Spectrometer (Sciex, Framingham, MA, USA) coupled to a UHPLC System (Shimadzu Nexera X2; Shimadzu, Kyoto, Japan). Samples were injected onto an UPLC column (HALO2 C18, 2.1 × 20 mm, 2 µm or Phenomenex Luna Omega Polar C18, 30 × 2.1 mm, 1.6 µm) and eluted with a gradient at temperature of 50 °C. The mobile phase was composed of acetonitrile (with 0.1% formic acid) and 0.1% formic acid in deionised water. A total run time was 1 or 1.5 min, with the flow rate of 0.7 ml/min (under gradient conditions). A positive ion mode with turbo spray, an ion source temperature of 500 °C and a dwell time of 150 ms were utilised for mass spectrometric detection. Multiple reaction monitoring (MRM) was used at the specific transitions for each compound/control tested: compound 5c: 361.9 → 304.9; compound 5d: 344.8 → 287.9; compound 5e: 349.8 → 292.9; compound 5 g: 350.8 → 293.9; compound 5 h: 344.0 → 286.9; compound 6a: 276.9 → 220.0; compound 5 b: 319.0 → 262.0; compound 6 b: 302.1 → 245.1; compound 6c: 344.9 → 288.0; compound 6d: 333.0 → 276.0; compound 6e: 316.1 → 259.0; compound 6f: 327.1 → 270.0; compound 6 g: 377.1 → 320.1; testosterone: 289.3→ 97.1; propranolol: 260.1 → 182.8; caffeine: 195.2 → 138.1; acebutolol: 337.2 → 116.2, nicardipine: 480.2 → 315.0; verapamil: 455.4 → 165.1; amprenavir: 506.2 → 245.4; diclofenac: 296.1 → 213.7 or 296.2 → 215.3; eucatropine: 292.2 → 109.1; benfluorex: 352.1 → 230.3, and warfarin: 309.2 → 163.2

| chromatographic logD [1] | melting point | MDCKII-MDR1 Efflux ratio (MDCKII-hMDR1 cells) | SMILES |
| --- | --- | --- | --- |
| 0.92 | – | – | c1ccc(-c2nc3cc(C4=NCCCN4)ccc3[nH]2)cc1 [Compound 6a, 2-Phenyl-5(6)–(3,4,5,6-tetrahydropyrimidin-1-ium-2-yl)benzimidazole chloride] |
| 1.17 | – | 1.13 | N#Cc1ccc(-c2nc3cc(C4=NCCCN4)ccc3[nH]2)cc1 [Compound 6b, 2–(4-Cyanophenyl)-5(6)–(3,4,5,6-tetrahydropyrimidin-1-ium-2-yl)benzimidazole chloride] |
| 2.6 | – | – | FC(F)(F)c1ccc(-c2nc3cc(C4=NCCCN4)ccc3[nH]2)cc1 [Compound 6c, 2–(4-Trifluoromethylphenyl)-5(6)–(3,4,5,6-tetrahydropyrimidin-1-ium-2-yl)benzimidazole chloride] |
| 2.43 | – | – | c1ccc2sc(-c3nc4cc(C5=NCCCN5)ccc4[nH]3)cc2c1 [Compound 6d, 2-(Benzo[b]thiophen-2-yl)-5(6)–(3,4,5,6-tetrahydropyrimidin-1-ium-2-yl)benzimidazole chloride] |
| 1.38 | – | – | c1ccc2c(-c3nc4ccc(C5=NCCCN5)cc4[nH]3)c[nH]c2c1 [Compound 6e, 2-(1H-Indol-3-yl)-5(6)–(3,4,5,6-tetrahydropyrimidin-1-ium-2-yl)benzimidazole chloride] |
| 2.18 | – | – | c1ccc2cc(-c3nc4cc(C5=NCCCN5)ccc4[nH]3)ccc2c1 [Compound 6f, 2-(Naphthalene-2-yl)-5(6)–(3,4,5,6-tetrahydropyrimidin-1-ium-2-yl)benzimidazole chloride] |

The remaining lines, values behind:

| SMILES | chromatographic logD [1] | melting point | MDCKII-MDR1 Efflux ratio (MDCKII-hMDR1 cells) |
| --- | --- | --- | --- |
| Cl.N#Cc1ccc(-c2nc3ccc(C4=NCCCN4)cc3s2)cc1 [Compound 5b, 2–(4-Cyanophenyl)-6–(3,4,5,6-tetrahydropyrimidin-1-ium-2-yl)benzothiazole chloride] | 2.18 | > 300 °C | – |
| Cl.FC(F)(F)c1ccc(-c2nc3ccc(C4=NCCCN4)cc3s2)cc1 [Compound 5c, 2–(4-Trifluoromethylphenyl)-6–(3,4,5,6-tetrahydropyrimidin-1-ium-2-yl)benzothiazole chloride] | 3.31 | 279 to 283 °C | – |
| Cl.c1ccc2nc(-c3nc4ccc(C5=NCCCN5)cc4s3)ccc2c1 [Compound 5d, 2-(Quinoline-2-yl)-6–(3,4,5,6-tetrahydropyrimidin-1-ium-2-yl)benzothiazole chloride] | 2.87 | > 300 °C | – |
| Cl.c1ccc2sc(-c3nc4ccc(C5=NCCCN5)cc4s3)cc2c1 [Compound 5e, 2-(Benzo[b]thiophen-2-yl)-6–(3,4,5,6-tetrahydropyrimidin-1-ium-2-yl)benzothiazole chloride] | 3.19 | > 300 °C | – |
| Cl.c1ccc2sc(-c3nc4ccc(C5=NCCCN5)cc4s3)nc2c1 [Compound 5g, 2-(Benzothiazole-2-yl)-6–(3,4,5,6-tetrahydropyrimidin-1-ium-2-yl)benzothiazole chloride] | 2.71 | > 300 °C | – |
| Cl.c1ccc2cc(-c3nc4ccc(C5=NCCCN5)cc4s3)ccc2c1 [Compound 5h, 2-(Naphthalene-2-yl)-6–(3,4,5,6-tetrahydropyrimidin-1-ium-2-yl)benzothiazole chloride] | 3.31 | > 300 °C | – |
| c1ccc2c(c1)cc(-c1nc3cc(C4=NCCCN4)ccc3[nH]1)c1ccccc12 [Compound 6g, 2-(Phenanthrene-9-yl)-5(6)–(3,4,5,6-tetrahydropyrimidin-1-ium-2-yl)benzimidazole chloride] | 3.27 | – | – |
